Experiment in all cases: growth of human tumour cells (NCI), 48 h
The subject of assay [1] is NCI-H522 lung.
For assay [2], the system named is CCRF-CEM leukemia.
Assay [3] has as its system HS 578T breast.
Assay [4] concerns OVCAR-3 ovarian.
In assay [5] the test system is MDA-MB-231 breast.
The test system of assay [6] is KM12 colon.
Assay [7] has as its system SK-MEL-5 melanoma.
Assay [8] has as its system HT29 colon.
Assay [9] has as its system M14 melanoma.
Assay [10] concerns HCC-2998 colon.

“And” between values parts separate entries of the source, which are not always exact repeats. Equal values may be shown once.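 Growth conditions: 96-well plates. Treatment: test compound, 48 hours, 5 concentrations. Analysis: linear interpolation between bracketing concentrations; unreached endpoints set to highest concentration. At the GI50, growth is halved. At the TGI there is no net growth.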

In the case of `CCOP(=O)(CC1OC(CO)C(O)C1O)OCC` (configuration not stated), the TGI in assay [1], in assay [2], in assay [3], in assay [4], in [5] and in assay [6] was over 100 µM in each case. Besides, the TGI in [7] was over 100 µM; in [8], over 61.8 µM; in assay [9], over 100 µM; in assay [10] it was over 100 µM.

With `O=C(CCl)Nc1ccc(C(=O)N/N=C/c2ccc(Cl)cc2)cc1`, the TGI in assay [1] is 3.6 µM and 3.61 µM; in assay [2], 5.32 µM and 4.46 µM; in assay [3] it was 6.7 µM; in assay [4], 3.42 µM and 3.6 µM; in assay [5], 3.68 µM and 0.417 µM; in assay [6], 3.84 µM and 2.74 µM. For the same compound, the TGI in assay [7] is 4.45 µM and 13.6 µM; in assay [8], 3.18 µM and 4.61 µM; in [9], 3.42 µM and 18.3 µM; in assay [10], 22.5 µM. The GI50 was 2.23 µM in assay [2]; 0.198 µM in assay [5]; 1.84 µM in assay [6]; 2.14 µM in [7]; 2.25 µM in assay [8]; 1.89 µM in assay [9]. For the same compound, the GI50 in assay [10] was 3.85 µM.

Consider `N#Cc1ccnc(C(=O)N2CCCC2C(=O)O)c1` (configuration not stated), for which the TGI in assay [1], in assay [2], in assay [3], in assay [4], in [5] and in assay [6] was over 100 µM in each case. In addition, the TGI in [7], in assay [8], in assay [9] and in [10] was over 100 µM in each case.

`Fc1cccc(F)c1C1SCc2nc3cc(Cl)ccc3n21` (configuration not stated): the TGI in assay [1] is over 100 µM; in [2], over 100 µM; in assay [3], over 73.4 µM; in assay [4] it was over 100 µM; in assay [5] it was over 100 µM; in assay [6] it was 72.9 µM. In addition, the TGI was 30.3 µM in assay [7], 31.3 µM in assay [8], over 100 µM in [9] and 42.6 µM in assay [10].

Turning to `O=C(O)C12C3C4(C(=O)O)C1C1(C(=O)O)C2C3(C(=O)O)C41` (configuration not stated), the TGI in [1], in assay [2], in [3], in assay [4], in assay [5] and in assay [6] was over 100 µM throughout. Moreover, the TGI in assay [7], in [8], in assay [9] and in assay [10] was over 100 µM in each case.

For the compound `CC(C)(C)C#CI1OC(=O)c2ccccc21`, the TGI in [1] was 3.82 µM; in assay [2] it was 6.09 µM; in [3] it was over 92.3 µM; in assay [4], 8.84 µM; in assay [5], 34 µM; in assay [6], 18.4 µM. Besides, the TGI in [7] was determined as 15.5 µM; in assay [8], 22.8 µM; in assay [9], 15.3 µM; in [10], 23.6 µM.

Take `Cn1c2ccccc2c2c3c(=O)[nH][nH]c(=O)c3c3c4ccccc4n(C)c3c21`: the TGI in [1], in assay [2], in [3], in assay [4], in [5] and in [6] was over 100 µM each time. The TGI in assay [7], in assay [8], in assay [9] and in [10] was over 100 µM throughout.

Regarding `CC(C)(C)[Si](C)(C)OC1CCOC1(O)c1ccccn1` (configuration not stated), the TGI in assay [1], in [2], in [3], in assay [4], in assay [5] and in [6] was over 100 µM each time. Also, the TGI in assay [7], in assay [8], in assay [9] and in [10] was over 100 µM in each case.

For the compound `COC(=O)Cc1c2n(c3ccccc13)C(=O)N1c3ccccc3C(CC(=O)OC)C21` (configuration not stated), the TGI in assay [1] is over 100 µM; in assay [2], over 100 µM; in [3], over 100 µM; in assay [4] it was over 100 µM; in assay [5] it was 67.3 µM; in assay [7], over 100 µM. Also, the TGI in [8] and in assay [10] was over 100 µM each time.

On to `Cc1ccc2nc(Nc3ccccc3C)c(Nc3ccccc3C)nc2c1`, for which the TGI in [1] is 35.9 µM; in [2], over 80.6 µM; in [3], over 100 µM; in assay [4], 52.3 µM; in [5] it was over 100 µM; in assay [6], 45.8 µM. Further, the TGI in assay [7] is over 63.8 µM; in assay [8], over 81.1 µM; in [9] it was 81.8 µM; in [10], 61.3 µM.

Consider `O=C(O)CCSc1ncnc2nc[nH]c12`, for which the TGI in [1], in assay [2], in assay [3], in [4], in assay [5] and in assay [6] was over 100 µM in each case. The TGI in assay [7], in assay [8], in assay [9] and in [10] was over 100 µM each time.

Regarding `CCCCCc1cc(CCCC)sc1-c1ccco1`, the TGI in assay [1] is over 100 µM; in assay [2] it was over 75 µM; in assay [3], over 100 µM; in assay [4] it was over 100 µM; in [5] it was over 100 µM; in [6] it was over 100 µM. In addition, the TGI in [7], in assay [8], in assay [9] and in [10] was over 100 µM in each case.

Take `C[N+]1(CCCCN2c3ccccc3Sc3cc(N=[N+]=[N-])ccc32)CCN(C(=O)CCNC(=O)Cc2ccc(C(=O)c3ccccc3)cc2)CC1`: the TGI in assay [1] is over 76.9 µM; in assay [2], 64.2 µM; in assay [3] it was over 83.1 µM; in assay [4], 89.2 µM; in assay [5], 81 µM; in assay [6] it was 61.2 µM. Besides, the TGI in assay [7] is over 62.6 µM; in [8], 52.6 µM; in assay [9] it was over 72.9 µM; in assay [10], 39.9 µM.

In the case of `OC(CCN1CCN(CCOC(c2ccc(F)cc2)c2ccc(F)cc2)CC1)c1ccc(Br)cc1` (configuration not stated), the TGI is 16.4 µM in assay [1]; 11.7 µM in assay [2]; 23.4 µM in assay [3]; 9.66 µM in [4]; 19.9 µM in [5]; 8.07 µM in assay [6]. Also, the TGI in [7] was 3.3 µM; in assay [8] it was 12.7 µM; in assay [9], 3.86 µM; in assay [10], 3.53 µM.

As to `Fc1ccc(OCc2ccc3nc(-c4ccccc4)c(Cl)nc3c2)cc1`, the TGI is 24.4 µM in [1]; 89.8 µM in assay [2]; 67.7 µM in assay [3]; over 100 µM in [4]; 47.3 µM in assay [5]; over 100 µM in [6]. The TGI in assay [7], in [8], in assay [9] and in [10] was over 100 µM throughout.

With `CCOC(=O)OC1(c2ccccc2)CCN(C)CC1`, the TGI in [1], in assay [2], in assay [3], in assay [4], in [5] and in assay [6] was over 100 µM in each case. Further, the TGI in assay [7], in assay [8], in [9] and in assay [10] was over 100 µM in each case.

With `Cc1nn(C(=O)c2ccccc2O)c2c1C(c1ccc([N+](=O)[O-])cc1)SC(N)=N2` (configuration not stated), the TGI in assay [1] was over 10 µM; in assay [2], over 9.13 µM; in assay [3] it was over 10 µM; in [4], 9.95 µM; in assay [5], over 10 µM; in assay [6] it was over 10 µM. Also, the TGI in assay [7], in assay [8], in assay [9] and in assay [10] was over 10 µM in each case.

In the case of `CCOP(=O)(COCCn1nc(Br)c(=O)[nH]c1=O)OCC`, the TGI in assay [1], in assay [2], in assay [3], in assay [4], in assay [5] and in assay [6] was over 100 µM in each case. For the same compound, the TGI in assay [7], in [9] and in assay [10] was over 100 µM throughout.

As for `O=C(O[C@@H](/C=C/c1ccccc1)P1(=O)N(Cc2ccccc2)[C@@H]2CCCC[C@H]2N1Cc1ccccc1)c1ccccc1`, the TGI was over 100 µM in assay [1]; 80.9 µM in assay [2]; over 100 µM in assay [3]; over 100 µM in assay [4]; 9.18 µM in [5]; 15.5 µM in [6]. Moreover, the TGI in [7] was 4.16 µM; in [8] it was over 100 µM; in assay [9], over 100 µM; in assay [10], over 100 µM.

Take `CN(C)C(=O)/N=C1\SC(=Nc2ccccc2)C(=Nc2ccccc2)N1c1ccc([N+](=O)[O-])cc1`: the TGI in assay [1], in [2], in assay [3], in assay [4], in assay [5] and in assay [6] was over 100 µM throughout. In addition, the TGI in assay [7], in assay [8], in [9] and in assay [10] was over 100 µM in each case.

In the case of `C=C1C[C@@H]2CC[C@@]34CC5O[C@H]6C(O[C@H]7CC[C@H](CC(=O)O[C@@H]8[C@@H](C)[C@@H]9O[C@@H]%10C[C@]%11(C[C@@H]%12O[C@]%13(C[C@H](C)[C@@H]%14O[C@@H]%15CC(C(COC(C)=O)OC(C)=O)O[C@@H]%15C[C@@H]%14O%13)C[C@H](C)[C@@H]%12O%11)O[C@@H]%10C[C@@H]9O[C@H]8CC8O[C@@H](CC[C@@H]1O2)C[C@@H](C)C8(O)CO)O[C@@H]7[C@@H]6O3)[C@H]5O4` (some centres not stated), the TGI in assay [1] was 0.417 µM; in [2] it was over 1 µM; in assay [3] it was 0.801 µM; in assay [4], over 1 µM; in assay [5] it was over 1 µM; in assay [6], over 0.792 µM. The TGI in assay [7] was over 1 µM; in assay [9], over 1 µM; in [10], over 0.225 µM.

Consider `Clc1sc(Cl)c2c1[C@H](Br)C[C@@H]2Cl`, for which the TGI in assay [1] is 33.5 µM; in assay [2], 52.9 µM; in assay [3], 49.8 µM; in assay [4], 64.9 µM; in assay [5] it was 51.3 µM; in [6] it was over 100 µM. Further, the TGI is over 100 µM in [7], over 100 µM in assay [8], 54.5 µM in assay [9] and over 100 µM in [10].

As for `O=C1C=CC(=O)c2c(O)c(N3CCN(c4ncccn4)CC3)c(Cl)c(O)c21`, the TGI worked out at 4.42 µM in assay [1]; 4.24 µM in [2]; 7.12 µM in [3]; 3.16 µM in assay [4]; 3.75 µM in [5]; 15.2 µM in [6]. Further, the TGI in assay [7] is 3.79 µM; in [8], 6.73 µM; in assay [9], 3.45 µM; in assay [10] it was 25.7 µM.

On to `Brc1ccc(/C(N=N/C(=N\Sc2ccccc2)c2ccc(Br)cc2)=N/Sc2ccccc2)cc1`, for which the TGI in [1], in assay [2], in assay [3], in [4], in assay [5] and in [6] was over 100 µM throughout. The TGI in assay [7], in assay [8], in [9] and in [10] was over 100 µM each time.

For `Oc1ccc(C[C@@H]2CN[C@H](Cc3ccc(O)c(Br)c3)CN2)cc1`, the TGI in assay [1], in assay [2], in [3], in assay [4], in [5] and in [6] was over 100 µM each time. The TGI in assay [8], in [9] and in assay [10] was over 100 µM each time.

The values above are taken from PubChem BioAssay (NCI).
